Results taken from patent publication US12108762B2, “Methods of controlling crop pests using aromatic amide insect repellents, methods of making aromatic amide insect repellents, and novel aromatic amide insect repellents” (priority 2020, dated 2024).

Legend:
Drosophila melanogaster [1] = assay: One-choice (single-trap) olfactory trap assay; format: in vivo; conditions: for repellency compared with DEET, one-choice trap assay: 25 μl of 25% by weight in DMSO on filter paper, 10% ACV attractant, 6 hours (FIG. 10) and 24 hours (FIG. 13); for fly death during the 6-hour screen: starved flies
Description: (§1) The D. melanogaster assays served as a model for SWD repellency. Forty different aromatic amides were studied at a 25% concentration by weight in DMSO, and the fruit fly chemosensory behaviors in response thereto were characterized. […]
(§2) Flies were monitored throughout their life cycle. Five-day-old flies (10 male and 10 females) were selected per assay, and starved for a predetermined length of time (e.g., 20 hours). After starvation, two different assays were used to study the olfactory related responses.
FIG. 7A is a diagram of a single-trap olfactory assay. Flies 105 were placed in a cylindrical chamber 100 containing a trap 110. The trap 110 was fashioned from an upturned 1.5 ml micro-centrifuge tube where the tapered end was trimmed away. A pipette tip 120 was cut to form a funnel and inserted into the bottom of the inverted micro-centrifuge tube 110. Then, filter paper 130 was placed between the pipette tip 120 and tip of micro-centrifuge tube 110. The pipette tip 120 was placed so that entering flies could not make physical contact with the filter paper 130. The filter paper 130 was placed in this manner so that when the filter paper 130 was treated with the repellent solution, the flies would only be able to smell at a distance and should be repelled even in the presence of an attractant.
A 25 μl sample of test compound at 25% concentration was applied to the filter paper 130 in order to provide the odor source. At the bottom of the trap 110, 125 μl of 10% apple cider vinegar (ACV) was placed as an attractant. Trials were conducted for 24 hours to visualize the number of flies 105 entering the trap 110. Typically, flies that entered the trap 110 contacted the liquid ACV and died in the ACV. Flies were counted and recorded at 4, 6, and 24 hours. No control other than DEET was used for this experiment, because it was a single trap, comparing the number of flies 105 repelled by the repellent versus the number of flies 105 interacting with the attractant (ACV).
(§3) The different assays assigned results as follows. For the single-choice olfactory assay, the numbers of flies were counted according to (1) those that entered the trap, (2) those that stayed outside the trap and lived, and (3) those that died outside the trap. For the two-choice olfactory assay, the numbers of flies were counted according to (1) those that entered the control trap, (2) those that entered the trap containing the repellent, (3) those that stayed outside of both traps and lived, and (4) those that died outside the traps. For the gustatory assay, the numbers of flies were counted according to those that had (1) a red-colored abdomen, (2) a blue-colored abdomen, (3) a purple abdomen, and (4) no added color to their abdomen. A nonparametric Mann-Whitney U test was used to compare the statistical differences between assays using DEET and the same assays using one of the present repellents for all trials.

Drosophila melanogaster [2] = assay: Two-choice trap olfactory assay; format: in vivo; conditions: for trap preference (control trap versus repellent-treated trap): DMSO control vs 25 μl of 25% by weight in DMSO
Description: as §1, §2
FIG. 7B is a diagram of a 2-choice trap olfactory assay. Two ACV traps 110a-b were prepared as above, in a cylinder 150 from upturned 1.5 ml micro-centrifuge tubes with the tapered end trimmed away, and a pipette 120a-b inserted into the inverted micro-centrifuge tube. In the cylinder 150, one trap 110a was treated with 25 μl of DMSO (as a control) on the filter paper 135, and the other trap 110b with the 25 μl of the 25% by weight solution of the test compound in DMSO applied to the filter paper 130. 125 μl of 10% ACV, diluted with water, was placed in the bottom of the traps 110a-b. Both traps contained filter paper as prepared in the one-trap assay. All trials were screened for 24 hours, and the number of flies 105 in each trap was counted. Positions of the traps (i.e., left or right, relative to the location of the chamber 150 in the room) were randomized. The number of flies 105 in each trap 110a and 110b were counted and recorded at 4, 6 and 24 hours.
as §3

Drosophila melanogaster [3] = assay: Habituation assay (prior exposure, then olfactory and gustatory screens); format: in vivo; conditions: for habituation of fruit flies, overall (olfactory and gustatory assays): post-exposure; for repellency after prior exposure, gustatory assay: prior exposure 25% by weight, gustatory screen at 5 mM
Description: In the gustatory assay, the consumption of sugar (from a solution in a gel) treated at varying concentrations of the present repellent compounds was compared to the consumption of control-treated sugar. For the habituation assay, flies were tested over repeated exposures to the present repellent compounds to measure changes in behavioral preference for the compounds.
Flies were continuously monitored throughout their lifetime. In this assay, 3- to 5-day-old flies (70 male and 70 female) were selected and transferred to an empty fly food container 320 (FIG. 9). The polystyrene foam cap 310 was treated with 50 μL of 25% by weight of the present aromatic amide repellent in DMSO. A thin porous material 330 was placed around the treated cap 310, with a gap between the cap 310 and the material 330 so that the flies cannot touch the treated cap 310, but can only smell it. […] After the 20-hour period, the flies were screened in the olfactory assay and gustatory assays above. In the olfactory assay, the number of flies in the trap, the number of flies outside the trap, and the number of flies that died outside the trap were counted as described herein, and in the gustatory assay, the color of the flies' abdomens were determined and counted, as described herein.
as §3

Or83b = biological target: T1, Or83b (Drosophila melanogaster, UniProt Q9VNB5); assay: Olfactory assays with receptor-modified (Or83b knockdown) flies; format: in vivo, fruit flies; conditions: for effectiveness with receptor-modified flies, one-choice trap olfactory assay: compared with assays with unmodified flies; for Or83b and Gr33a requirement for detection of the compound: fruit flies; for Or83b and Gr33a requirement for detection of the compound / effectiveness as repellent with Or83b-modified flies above the knockdown temperature: olfactory assays; for effectiveness as repellent with Or83b-modified flies above the knockdown temperature: compared with unmodified flies
T1 construct: endogenous in cells; host or cells: whole living fruit flies (behavioural olfactory assays)
T1 sequence (Q9VNB5 1-486): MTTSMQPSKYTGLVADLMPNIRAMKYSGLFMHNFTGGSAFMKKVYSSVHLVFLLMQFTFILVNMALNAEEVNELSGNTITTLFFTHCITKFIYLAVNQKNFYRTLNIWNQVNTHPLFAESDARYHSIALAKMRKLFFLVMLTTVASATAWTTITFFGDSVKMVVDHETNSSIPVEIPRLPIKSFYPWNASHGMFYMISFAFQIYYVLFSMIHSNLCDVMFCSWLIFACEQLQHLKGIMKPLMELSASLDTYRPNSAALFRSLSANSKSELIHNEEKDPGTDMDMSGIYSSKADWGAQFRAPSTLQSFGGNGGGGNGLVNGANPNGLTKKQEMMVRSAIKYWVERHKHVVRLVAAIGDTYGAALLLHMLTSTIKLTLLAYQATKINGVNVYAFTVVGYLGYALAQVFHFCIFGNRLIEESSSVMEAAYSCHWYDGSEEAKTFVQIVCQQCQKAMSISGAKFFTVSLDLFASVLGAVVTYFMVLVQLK
Description: (§4) The neurophysiological mechanisms of repellency were analyzed using receptors that are essential for DEET detection, Or83b and Gr33a. […] These receptors also play a role in the repellency of the most promising of the present aromatic amide compounds.

Gr33a = biological target: T2, Gr33a (Drosophila melanogaster, UniProt Q9VKA5); assay: Gustatory assay with receptor-modified (Gr33a knockdown) flies; format: in vivo, fruit flies
T2 construct: endogenous in cells; host or cells: whole living fruit flies (behavioural gustatory assay)
T2 sequence (Q9VKA5 1-475): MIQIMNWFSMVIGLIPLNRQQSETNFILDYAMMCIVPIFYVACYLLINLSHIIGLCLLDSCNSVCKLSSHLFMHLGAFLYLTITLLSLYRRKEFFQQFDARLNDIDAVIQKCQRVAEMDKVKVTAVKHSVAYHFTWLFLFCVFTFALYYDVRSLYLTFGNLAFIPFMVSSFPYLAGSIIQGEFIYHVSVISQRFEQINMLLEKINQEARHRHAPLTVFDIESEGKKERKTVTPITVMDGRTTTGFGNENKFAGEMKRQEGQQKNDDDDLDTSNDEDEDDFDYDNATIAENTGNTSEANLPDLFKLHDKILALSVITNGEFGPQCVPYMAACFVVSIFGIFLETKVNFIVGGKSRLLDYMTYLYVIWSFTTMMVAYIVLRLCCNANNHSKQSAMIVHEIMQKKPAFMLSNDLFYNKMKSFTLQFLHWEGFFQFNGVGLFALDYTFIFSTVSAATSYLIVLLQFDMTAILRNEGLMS
Description: as §4

mosquito = mosquito repellent; cited from earlier work
[4] = tested on: odorant receptor CquiOR136; conditions: southern house mosquito; cited from earlier work
[5] = one-choice trap, 25% concentration
[6] = one-choice trap, 25% concentration, 6 hours

SMILES | repellency compared with DEET, one-choice trap assay (Drosophila melanogaster [1]) | ranking among repellents in the one-choice assay (Drosophila melanogaster [1]; [5]) | fly death during the 6-hour screen (Drosophila melanogaster [1]; [6]) | participation in choosing either trap (Drosophila melanogaster [2]; 25% by weight, 6 hours) | trap preference (control trap versus repellent-treated trap) (Drosophila melanogaster [2]; 6 hours) | habituation of fruit flies, overall (olfactory and gustatory assays) (Drosophila melanogaster [3]) | repellency after prior exposure, gustatory assay (Drosophila melanogaster [3]) | effectiveness with receptor-modified flies, one-choice trap olfactory assay (Or83b) | Or83b and Gr33a requirement for detection of the compound (Or83b) | effectiveness as repellent with Or83b-modified flies above the knockdown temperature (Or83b) | preference of receptor-modified flies for the compound, olfactory assays (Or83b) | preference for repellent-treated food source post-knockdown, gustatory assay (Gr33a) | further results
O=C(c1cccc(F)c1)N1CCCC1 [Compound 2mB, N-[m-fluorobenzoyl]pyrrolidine] | more effective than DEET | most effective repellents | no fly death | less overall participation | preference for the control trap | demonstrated habituation in at least one assay | significantly less repellency | significantly less effective | required | significantly less effective | much higher preference | increased preference | aversion (no flies entering the single-choice trap) (Drosophila melanogaster [1]; [5]): 100%; repellency (Drosophila melanogaster [1]; [6]): significant repellency; average number of flies that chose a trap in 6 hours (Drosophila melanogaster [2]; 25% by weight, 20 flies per assay, 6 hours): 4 flies; repellency after prior exposure, one-choice trap olfactory assay (Drosophila melanogaster [3]; prior exposure to 25% by weight repellent for 20 hours, compared with earlier assay): worse at repelling insects after prior exposure; effectiveness with receptor-modified flies, gustatory assay (Gr33a; compared with unmodified flies): significantly less effective
CN1CCN(C(=O)c2ccccc2F)CC1 [Compound 2oE, 1-methyl-4-[o-fluorobenzoyl]piperazine] | more effective than DEET | most effective repellents | some fly death | less overall participation | preference for the control trap | unable to habituate | statistically similar results | less effective, but statistically similar | required | significantly less effective | much higher preference | increased preference | fly mortality (Drosophila melanogaster [1]; one-choice trap, 25% concentration, exposure in the gas phase): relatively insignificant; interaction with control trap in comparison with repellent-treated trap (Drosophila melanogaster [2]; 25% by weight, low participation): more flies interacted with the control trap
CCN(CC)C(=O)c1cccc(C)c1 [DEET, N,N-diethyl-m-toluamide, reference compound] | – | – | – | – | – | demonstrated habituation in at least one assay | significantly less repellency | – | – | – | – | – | repellency after prior exposure, 2-choice olfactory assay (Drosophila melanogaster [3]; prior exposure to 25% by weight repellent (18-hour period as printed elsewhere in the source)): statistically similar; duration of efficacy (mosquito): five; affinity for odorant receptor [4]: showing an affinity
